# Key:
# V83W L120W BAX = biological target: T1, V83W L120W BAX (Homo sapiens, UniProt Q07812, L120W/V83W); assay: ANTS/DPX liposome permeabilization with BAX mutant; type: biochemical; details: 100 nM V83W L120W BAX, 20 nM cBID, 20 uM compound
# T1 construct: made in house
# Protocol: For ANTS/DPX dye release assays: ANTS (fluorophore; excitation 355 nm, emission 520 nm) and DPX (collisional quencher) are encapsulated in reconstituted liposomes. When the membrane is permeabilized, ANTS and DPX diffuse to the outside of the liposomes, decreasing the effective concentration DPX and therefore quenching by […] is decreased and ANTS fluorescence increases. ANTS/DPX liposomes (8 uL of mg/mL liposome preparation per 100 μL of reaction) were added to individual wells of multi-well plates (100 μL final volume for 96 well plates or (30 μL total volume for 384 well plates) in assay buffer (10 mM HEPES pH 7.2, 200 mM KCl, and 5 mM MgCl2). The background fluorescence of the liposomes and the compound dissolved in DMSO was measured for 10 minutes to ensure fluorescent signal stabilized (F0). Unless explicitly stated, 20 nM cBID and 100 nM BAX were added sequentially to each well and mixed thoroughly. The fluorescence intensity of ANTS was measured every minute for 2-3 hours until the signal stabilizes at a plateau (F). […] The plate was then read a third time to assess the fluorescence of ANTS upon full dissociation of liposomes in each well (F100). The percentage of dye release from the liposomes due to the action of cBID and BAX is calculated as: […]
# BAX = BAX (Homo sapiens, UniProt Q07812); assay: 1H-15N HSQC NMR chemical shift perturbations with 15N-labelled BAX; type: binding; parameters: NMR experiments used full-length WT BAX at a concentration of 200 μM; made in house; host or cells: Escherichia coli BL21-AI (minimal media, 15N); details: 200 uM BAX
# Protocol: All experiments were performed using an independent sample for each measurement and were DMSO matched to account for environment changes due to the solvent. ^15N-labeled BAX was prepared as described above in 50 mM potassium phosphate pH 6, 50 mM NaCl, and 10% D2O. Samples were mixed before loading 40 μL in a 1.7 mm sample tube. […] NMR experiments used full-length WT BAX at a concentration of 200 μM. Experiments were conducted on a 600 MHz Bruker Avance magnet at 25° C. Chemical shift perturbations (CSP) were calculated in CCPNMRv3 using an automated analysis, where all peaks were matched to their extrema and calculated using the equation: […]
# In the CSP equation above, α denotes the relative weighting of chemical shift changes of the ^15N relative to ^1H nuclei. ΔδHX and ΔδNx are the observed changes of the proton and nitrogen chemical shifts for residue x, respectively. As a note, all amino acid positions on the HSQC were manually inspected to use the extrema of the nearest identified peak. The absence of a bar in the CSP graph indicates no chemical shift, the presence of a proline, or a missing residue peak not used for analysis. Significance threshold was calculated as the average of chemical shifts across all residues plus the standard deviation. […]
# Chain of BAX (Q07812 whole entry): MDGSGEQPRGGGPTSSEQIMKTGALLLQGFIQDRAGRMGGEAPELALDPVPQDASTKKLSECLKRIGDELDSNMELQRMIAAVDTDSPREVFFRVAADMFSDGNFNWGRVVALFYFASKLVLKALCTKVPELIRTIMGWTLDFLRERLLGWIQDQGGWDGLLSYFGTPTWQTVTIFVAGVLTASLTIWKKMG
# T1 sequence (Q07812 whole entry V83W/L120W): as the sequence (Q07812 whole entry) above, with V83W, L120W counted along it
SMILES,inhibition of mutant BAX (V83W L120W BAX),binding to BAX (chemical shift perturbations) (BAX)
"COc1cc2ncnc(Nc3ccc(F)c(Cl)c3)c2cc1NC(=O)/C=C/CN1CCCCC1 [Dacomitinib, reference compound]",reduced inhibition,–
"COc1cc2ccnc(Nc3ccc(F)c(Cl)c3)c2cc1NC(=O)CCCN1CCCCC1 [Compound I-1, N-(1-((3-chloro-4-fluorophenyl)amino)-6-methoxyisoquinolin-7-yl)-4-(piperidin-1-yl)butanamide]",–,bind the cytosolic conformation of BAX

# From patent US20250154140A1 (Sunnybrook Research Institute, priority 2022, published 2025)
